Data from publication PMC8875894, “Dabigatran Acylglucuronide, the Major Metabolite of Dabigatran, Shows a Weaker Anticoagulant Effect than Dabigatran” (Pharmaceutics, 2022).

Target: T1, thrombin (Homo sapiens, UniProt P00734)
T1 construct: gene F2
Assay: thrombin generation assay in human plasma (fluorogenic Z-Gly-Gly-Arg-AMC, AUC); thrombin time prolonged

**Q.** With `Cn1c(CNc2ccc(C(=N)N)cc2)nc2cc(C(=O)N(CCC(=O)O[C@@H]3O[C@H](C(=O)O)[C@@H](O)[C@H](O)[C@H]3O)c3ccccn3)ccc21` [DABG, dabigatran acylglucuronide] as the compound, how does the IC50 read?
**A.** 435 nM
